{"source": "patent US9403756B2", "about": "“N-phenyl anthranilic acid derivatives and uses thereof” (Ramot at Tel-Aviv University Ltd., priority 2007, dated 2016)", "key": {"[1]": {"tested_on": "hippocampal neurons", "assay": "Current-clamp recordings in cultured hippocampal neurons", "type": "cell-based, rat", "experimental": "For hippocampal neuronal cultures, Sprague-Dawley rat embryos (E18) were removed by caesarian section and their hippocampi were dissected out. The tissue was digested with papain for 20 min, triturated to a single-cell suspension, and plated at a density of 40,000 cells per ml on a substrate of bovine collagen type IV and 100 μg/ml poly-L-lysine in 13 mm diameter glass coverslips of a 24-multiwell plate. The culture medium consisted of Modified Eagle's Medium containing 5% horse serum (Biological Industries, Beit HaEmek, Israel), B-27 neuronal supplement (Invitrogen, Carlsbad, Calif.), 100 U/ml penicillin, 100 μg/ml streptomycin, and 2 mM glutamine. D-glucose was supplemented to a final concentration of 6 g/l. Cytosine-1-D-arabinofuranoside (5 μM) was added after 5 days to arrest glial cell proliferation.\nFor electrophysiological recordings hippocampal neurons were used at 10-14 days in culture. All cultures were maintained at 37° C. in humidified air containing 5% CO2.\nFor current-clamp recordings in primary cultured neurons, the patch pipettes were filled with (in mM): 135 KCl, 1 K2ATP, 1 MgATP, 2 EGTA, 1.1 CaCl2, 5 glucose, 10 HEPES, adjusted with KOH at pH 7.4 (315 mOsm). […] A liquid junction potential of about −15.6 mV was measured between the intracellular and saline solutions and corrected on-line. […]"}, "[2]": {"target": "T1, Kv7.2 (Homo sapiens, UniProt O43526)", "T1 construct": "expressed in transfected cells; host or cells: Xenopus oocytes", "assay": "Kv channel selectivity, Xenopus oocytes: Kv7.2", "type": "cell-based", "conditions": "−40 mV", "experimental": "Voltage-clamp measurements in Xenopus oocytes were performed as previously described.\nThe selectivity of NH29 on other relevant Kv channels expressed in Xenopus oocytes was also studied, and the results are summarized in Table 3 below. The specificity of NH29 at 25 μM and 50 μM towards various Kv channels was tested in Xenopus oocytes, except for Kv1.2 which was checked in transfected CHO cells. The current amplitude of the various Kv channels was tested at the indicated voltages and the effect of the drugs was expressed as fold of the control amplitude measured under the same conditions in the absence of the drug. The data in Table 3 are expressed as mean±SEM of 5-7 separate experiments."}, "[3]": {"target": "T2, wild type KCNQ2 (Homo sapiens, UniProt O43526)", "T2 construct": "expressed in transfected cells; host or cells: CHO cells (printed for the mutants and in the general method)", "assay": "Wild type KCNQ2 (Kv7.2) currents, patch-clamp", "type": "cell-based", "conditions": "NH29", "excerpt": "(§1) FIGS. 10A-D present the potentiating effect of NH29, an exemplary channel opener compound according to embodiments of the present invention, on wild type KCNQ2 (FIGS. 10A and 10B) and R207W mutant (FIGS. 10C and 10D) channels, as expressed in activation curve measurements, showing that NH29 left-shifts the activation curve (ΔV50) by −15.5 mV and −5.5 mV in the case of the wild-type and the mutant, respectively, and showing that NH29 enhances the current of wild-type and the mutant by about 3.4-fold (at −40 mV) and 1.5-fold (at −20 mV), respectively.\nVoltage-clamp recordings in CHO cells were performed, using the whole-cell configuration of the patch-clamp technique. Signals were amplified using an Axopatch 200B patch-clamp amplifier (Molecular Devices, Sunnyvale, Calif.), sampled at 2 kHz and filtered at 800 Hz via a 4-pole Bessel low pass filter. Data were acquired using pClamp 9.2 software (Molecular Devices) and an IBM compatible Pentium IV computer in conjunction with a DigiData 1322A interface (Molecular Devices). The patch pipettes were pulled from borosilicate glass (Warner Instrument Corp, USA) with a resistance of 2-5 MΩ. […] Series resistances (3-13 MΩ) were compensated (75-90%) and periodically monitored."}, "[4]": {"target": "T3, KCNQ2 mutant R207W (Homo sapiens, UniProt O43526, R207W)", "T3 construct": "expressed in transfected cells; host or cells: CHO cells", "T3 sequence (O43526 whole entry R207W)": "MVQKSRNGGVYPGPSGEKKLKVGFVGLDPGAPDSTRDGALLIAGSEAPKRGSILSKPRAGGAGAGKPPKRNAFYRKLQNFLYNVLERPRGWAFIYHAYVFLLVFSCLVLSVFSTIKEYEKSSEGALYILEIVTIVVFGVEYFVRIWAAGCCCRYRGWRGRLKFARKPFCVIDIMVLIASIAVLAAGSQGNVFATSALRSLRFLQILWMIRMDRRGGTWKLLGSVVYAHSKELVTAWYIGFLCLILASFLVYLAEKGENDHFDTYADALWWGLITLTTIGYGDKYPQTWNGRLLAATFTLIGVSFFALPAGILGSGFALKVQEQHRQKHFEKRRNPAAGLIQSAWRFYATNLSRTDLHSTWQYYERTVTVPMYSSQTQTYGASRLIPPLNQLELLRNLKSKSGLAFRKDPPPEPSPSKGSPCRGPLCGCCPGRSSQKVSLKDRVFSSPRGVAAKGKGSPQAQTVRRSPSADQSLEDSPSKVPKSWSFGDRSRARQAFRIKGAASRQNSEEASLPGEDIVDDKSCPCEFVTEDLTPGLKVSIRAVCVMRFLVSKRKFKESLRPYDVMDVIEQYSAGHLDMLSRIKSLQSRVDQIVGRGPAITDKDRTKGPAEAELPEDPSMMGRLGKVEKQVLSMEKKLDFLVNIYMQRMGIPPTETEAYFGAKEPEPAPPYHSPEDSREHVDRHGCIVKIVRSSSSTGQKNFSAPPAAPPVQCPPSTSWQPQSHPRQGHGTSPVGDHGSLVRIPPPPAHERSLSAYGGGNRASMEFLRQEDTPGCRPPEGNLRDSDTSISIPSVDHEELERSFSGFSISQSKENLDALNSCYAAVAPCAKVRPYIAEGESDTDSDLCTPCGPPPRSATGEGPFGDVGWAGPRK", "type": "cell-based", "excerpt": "as §1\nFIGS. 11A-F present the potentiating effect of NH29, an exemplary channel opener compound according to embodiments of the present invention, and Retigabine, on KCNQ2 mutants R207W and W236L mutant. Shown are representative traces recorded from CHO cell transfected with the KCNQ2 mutant R207W 0, 1 and 4-4.5 minutes after external application of 25 μM of NH29 and wherein the membrane potential was stepped from −90 mV holding potential to −20 mV for 1.5 seconds pulse duration (FIG. 11A), or 0, 1 and 4 minutes after external application of 25 μM of Retigabine wherein the membrane potential was stepped from −90 mV holding potential to −40 mV for 1.5 seconds pulse duration (FIG. 11B). FIGS. 11C and 11D show representative traces recorded from CHO cells transfected with the KCNQ2 mutant W236L 0, 1 and 6 minutes after external application of 25 μM of NH29 (FIG. 11C) or 0 and 5 minutes after external application of 10 μM of Retigabine (FIG. 11D) and wherein the membrane potential was stepped from −90 mV holding potential to −40 mV for 1.5 seconds pulse duration. FIG. 11E presents superimposed traces, showing the effects of Retigabine (RTG) and NH29 on the channel activity of KCNQ2 mutant W236L as measured at −40 mV; and FIG. 11F presents a bar diagram comparing the potentiating effect of NH29 and Retigabine on native KCNQ2 and KCNQ2 mutants, wherein the opener effect is expressed as percent of the control current in the absence of the opener.\nVoltage-clamp recordings in CHO cells were performed, using the whole-cell configuration of the patch-clamp technique. Signals were amplified using an Axopatch 200B patch-clamp amplifier (Molecular Devices, Sunnyvale, Calif.), sampled at 2 kHz and filtered at 800 Hz via a 4-pole Bessel low pass filter. Data were acquired using pClamp 9.2 software (Molecular Devices) and an IBM compatible Pentium IV computer in conjunction with a DigiData 1322A interface (Molecular Devices). The patch pipettes were pulled from borosilicate glass (Warner Instrument Corp, USA) with a resistance of 2-5 MΩ. For K^+ current recordings in CHO cells, the intracellular pipette solution contained (in mM): 130 KCl, 1 MgCl2, 5 K2ATP, 5 EGTA, 10 HEPES, adjusted with KOH to pH 7.4 (290 mOsm). The extracellular solution contained (in mM): 140 NaCl, 4 KCl, 1.8 CaCl2, 1.2 MgCl2, 11 glucose, 5.5 HEPES, adjusted with NaOH to pH 7.4 (310 mOsm). Series resistances (3-13 MΩ) were compensated (75-90%) and periodically monitored."}, "[5]": {"tested_on": "DRG neurons", "assay": "Current-clamp recordings in cultured DRG neurons", "type": "cell-based, rat", "conditions": "25 μM NH29; 75-250 pA for 400 ms; control 8.7±0.8; n=12"}}, "data": [{"smiles": "O=C(Cc1cc([N+](=O)[O-])ccc1Nc1c(Cl)cccc1Cl)OCCO", "note": "[NH25]", "values": [{"measurement": "number of evoked action potentials", "setting": "[1]; 25 μM NH25, 75-200 pA for 400 ms, control 9.6±1.0, n=8", "result": "2.1±0.5"}, {"measurement": "hyperpolarization of resting membrane potential", "setting": "[1]; NH25", "result": "−8.5", "unit": "mV"}]}, {"smiles": "O=C(Cc1cc([N+](=O)[O-])cc([N+](=O)[O-])c1Nc1c(Cl)cc([N+](=O)[O-])cc1Cl)NCCO", "note": "[NH29]", "values": [{"measurement": "Fold current amplitude", "setting": "[2]; 25 μM", "result": "3.5 ± 0.4", "unit": "fold"}, {"measurement": "Fold current amplitude", "setting": "[2]; 50 μM", "result": "6.8 ± 0.7", "unit": "fold"}, {"measurement": "left-shift of the activation curve (ΔV50)", "setting": "[3]", "result": "−15.5", "unit": "mV"}, {"measurement": "effect of point mutation R207W on the opener effect", "setting": "[4]; 25 μM", "result": "completely abolished the opener effect"}, {"measurement": "fold enhancement of current", "setting": "[4]; 25 μM NH29, at −20 mV", "result": "~1.5", "unit": "fold"}, {"measurement": "left-shift of the activation curve (ΔV50)", "setting": "[4]; NH29", "result": "−5.5", "unit": "mV"}, {"measurement": "number of evoked action potentials", "setting": "[5]", "result": "0.9±0.1"}]}]}
